Assay results taken from patent publication EP1622888B1, “BENZO-, NAPHTHO- AND PHENANTHROCHROMENES SUBSTITUTED WITH AN ARYLAMINE GROUP WITH PHOTOCHROMIC PROPERTIES” (Corning Incorporated, priority 2003, dated 2004).

experiment: Photochromic properties: UV-visible absorption of THF solutions before and after exposure to a UV source at 365 nm; type: physicochemical; conditions: 5 mg in 50 ml of THF, optical path of 1 cm, after exposure to a UV source at 365 nm
Experimental: The photochromic properties of said compounds (1) to (6) and (C1) to (C5) were evaluated.
Said compounds were dissolved, at the rate of 5 mg in 50 ml of THF, and the UV-visible absorptions (optical path of 1 cm) is then measured before and after exposure to a UV source at 365 nm. The observation of the tints and the intensities developed is done by placing the solutions in the sun or before a solar simulator.

With `COc1cc2c3c(c4c(c2cc1OC)CCc1ccccc1-4)OC(c1ccccc1)(c1ccc(N(C)C)c(C)c1)C=C3` (centres unmarked) [(1)] as the molecule, how does the “λMAX VIS: λ of the band of the lowest energy in the field of the visible spectrum of the compound after exposure” value (“λMAX VIS: λ” below) read?
The value was 452 nm.

What does the source list for `COc1ccc(C2(c3ccc(N(C)C)c(Br)c3)C=Cc3c4c(c5cc6c(cc5c3O2)OCC6)-c2ccccc2CC4)cc1` (centres unmarked) [(6)]?
λMAX VIS: λ of the band of the lowest energy in the field of the visible spectrum of the compound after exposure: 561 nm; λVIS1: λ of the band of highest energy in the field of the visible spectrum of the compound after exposure: 443 nm

With `COc1ccc2c3c(c4c(c2c1)OC(c1ccccc1)(c1ccc(N(C)C)cc1)C=C4)CCc1ccccc1-3` (centres unmarked) [(C3), reference compound] as the molecule, how does the “λMAX VIS: λ” value read?
Its value is 584 nm.

And the “λVIS1: λ of the band of highest energy in the field of the visible spectrum of the compound after exposure” value (shortened to “λVIS1: λ of the band of highest energy”)?
Its value is 482 nm.

For `COc1ccc(C2(c3ccccc3)C=Cc3c(c4c(c5cc(OC)c(OC)cc35)CCc3ccccc3-4)O2)cc1` (centres unmarked) [(C2), reference compound], which “λMAX VIS: λ” value is on record?
The value was 441 nm.

With `COc1cc2c3c(c4c(c2cc1OC)CCc1ccccc1-4)OC(c1ccccc1)(c1ccc(N(C)C)c(-c2ccccc2)c1)C=C3` (centres unmarked) [(2)] as the molecule, how does the “λMAX VIS: λ” value read?
The value was 465 nm.

For `COc1ccc(C2(c3ccccc3)C=Cc3c4c(c5ccc(OC)cc5c3O2)-c2ccccc2CC4)cc1` (centres unmarked) [(C4), reference compound], which “λMAX VIS: λ” value is on record?
Its value is 548 nm.

What about the “λVIS1: λ of the band of highest energy” value of the same molecule?
The value was 429 nm.

With `COc1ccc2c3c(c4c(c2c1)OC(c1ccccc1)(c1ccc(N(C)C)c(C)c1)C=C4)CCc1ccccc1-3` (centres unmarked) [(3)] as the molecule, how does the “λMAX VIS: λ” value read?
The value was 556 nm.

What about the “λVIS1: λ of the band of highest energy” value of the same molecule?
The value was 435 nm.

With `COc1cc2c3c(c4c(c2cc1OC)CCc1ccccc1-4)OC(c1ccccc1)(c1ccc(NC(C)=O)cc1)C=C3` (centres unmarked) [(C5), reference compound] as the molecule, how does the “λMAX VIS: λ” value read?
The value was 446 nm.

With `COc1ccc2c3c(c4c(c2c1)OC(c1ccccc1)(c1ccc(N(C)C)c(-c2ccccc2)c1)C=C4)CCc1ccccc1-3` (centres unmarked) [(4)] as the molecule, how does the “λMAX VIS: λ” value read?
The value was 562 nm.

What about the “λVIS1: λ of the band of highest energy” value of the same molecule?
The value was 469 nm.

For `COc1ccc(C2(c3ccc(N(C)C)c(C)c3)C=Cc3c4c(c5cc6c(cc5c3O2)OCC6)-c2ccccc2CC4)cc1` (centres unmarked) [(5)], which “λMAX VIS: λ” value is on record?
Its value is 563 nm.

And the “λVIS1: λ of the band of highest energy” value?
Its value is 444 nm.

With `COc1cc2c3c(c4c(c2cc1OC)CCc1ccccc1-4)OC(c1ccccc1)(c1ccc(N(C)C)cc1)C=C3` (centres unmarked) [(C1), reference compound] as the molecule, how does the “λMAX VIS: λ” value read?
The value was 507 nm.
